Reference: patent publication US20090076012A1, “Modulation of pathogenicity” (priority 2002, published 2009)

What follows are compounds tested on bioluminescent sensor strain Escherichia coli MT102 (pSB403) (assay: Biosensor assay: quorum sensing inhibition, bioluminescence of the sensor strain). Conditions: 3oxo-C6-HSL 100 nM; bioluminescence after 4 hours at 30° C.
Assay type: cell-based
Experimental: Quorum sensing inhibition of the compounds was investigated with the aid of the bioluminescent sensor strain Escherichia coli MT102 (pSB403) (Winson et al., FEMS Microbiol. Lett. 163:185-92, 1998). Plasmid pSB403 contains the Photobacterium fischeri luxR gene together with the […] promoter region as a transcriptional fusion to the bioluminescence genes luxCDABE of Photorhabdus luminescence.
Inhibitory studies were conducted in a microtitre dish assay as follows: the E. coli sensor strain grown over night in LB medium (Sambrook et al., Molecular Cloning: A Laboratory Manual. 2nd Edn. Cold Spring Harbor Laboratory, New York, 1989) was diluted 1:4 and grown for another 1 hour at 30° C. After addition of 3oxo-C6-HSL (final concentration 100 nM) 100 μl of an exponential culture suspension were filled in the wells of a FluoroNunc Polysorp microtitre dish. The test compounds were added to the culture in different concentrations and bioluminescence was measured after 4 hours of incubation at 30° C. with a Lamda Fluoro 320 Plus reader (Bio-Tek Instruments). Inhibitor-mediated reduction of light emission was correlated with the value obtained without addition of the test compounds. IC50 values (concentration of inhibitor required for 50% inhibition of the signal compared to the signal without inhibitor) were determined by using a fitting function after drawing a graph of the activities of eight different inhibitor concentrations.
CCn1nc(C)c(Br)c1C(=O)NNC(=O)c1ccc(Cl)s1 [Compound 73, 4-Bromo-2-ethyl-5-methyl-2H-pyrazole-3-carboxylic acid N′-(5-chloro-thiophene-2-carbonyl)-hydrazide] showed an IC50 of 1 to 50 µM.

Same assay, conditions: Escherichia coli, 4 h, 3oxo-C6-HSL 100 nM; bioluminescence after 4 hours at 30° C.
O=C(NNC(=O)c1ccc(Br)s1)c1cccs1 [Compound 59, Thiophene-2-carboxylic acid N′-(5-bromo-thiophene-2-carbonyl)-hydrazide] showed an IC50 of 1 to 50 µM.
In the case of O=C(NNC(=O)c1sc2ccccc2c1Cl)c1sccc1Br [Compound 61, 3-Chloro-benzo[b]thiophene-2-carboxylic acid N′-(3-bromo-thiophene-2-carbonyl)-hydrazide], the IC50 is reported as 50 to 100 µM.
With CCCCCCCC(=O)NNC(=O)c1cccnc1Cl [Compound 94, 2-Chloro-nicotinic acid N′-octanoyl-hydrazide] the IC50 was 1 to 50 µM.
For O=C(NNc1nccc(C(F)(F)F)n1)c1cccs1 [Compound 25, Thiophene-2carboxylic acid N′-(4-trifluoromethyl-pyrimidin-2-yl)-hydrazide], the IC50 was 1 to 50 µM.
Compound O=C(Nc1cccc(C(F)(F)F)c1)c1cnc(Cl)nc1C(F)(F)F [Compound 6, 2-Chloro-4-trifluoromethyl-pyrimidine-5-carboxylic acid (3-trifluoromethyl-phenyl)-amide] has an IC50 of 50 to 100 µM.
COc1cscc1C(=O)NNC(=O)c1ccc(Cl)cc1 [Compound 30, 4-Chloro-benzoic acid N′-(4-methoxy-thiophene-3-carbonyl)-hydrazide] showed an IC50 greater than 100 µM.
Work on CCCCCCC(=O)CC(=O)Nc1ccnn1C [Compound 114, 3-Oxo-nonanoic acid (2methyl-2H-pyrazol-3-yl)-amide] yielded an IC50 greater than 100 µM.
Cc1cc(C(=O)NNC(=O)c2cccs2)n(C(C)(C)C)n1 [Compound 68, Thiophene-2-carboxylic acid N′-(2-tert-butyl-5-methyl-2H-pyrazole-3-carbonyl)-hydrazide] gave an IC50 greater than 100 µM.
CCn1nc(C)c(Br)c1C(=O)NNC(=O)c1ccc(Br)s1 [Compound 71, 4Bromo-2-ethyl-5-methyl-2H-pyrazole-3-carboxylic acid N′-(5-bromo-thiophene-2-carbonyl)-hydrazide] showed an IC50 of 1 to 50 µM.
Cn1nc(-c2cccs2)cc1NC(=O)CCCCCBr [Compound 20, 6-Bromo-hexanoic acid (2-methyl-5-thiophen-2-yl-2H-pyrazol-3-yl)-amide] showed an IC50 of 1 to 50 µM.
Compound Cc1nn(C)c2ncc(C(=O)NNC(=O)c3cccs3)c(Cl)c12 [Compound 63] has an IC50 greater than 100 µM.
O=C(NNC(=O)c1sccc1Br)c1cccs1 [Compound 55, Thiophene-2-carboxylic acid N′-(3-bromo-thiophene-2-carbonyl)-hydrazide] was tested, and the IC50 was 1 to 50 µM.
COc1ccc(NC(=O)c2cccnc2SC)cn1 [Compound 8, N-(6-Methoxy-pyridin-3-yl)-2-methylsulfanyl-nicotinamide] was tested, and the IC50 was greater than 100 µM.
Compound Cc1cc(C(=O)NNC(=O)c2sc3ccccc3c2Cl)n(C)n1 [Compound 64, 2,5-Dimethyl-2H-pyrazole-3-carboxylic acid N′-(3-chloro-benzo[b]thiophene-2-carbonyl)-hydrazide] has an IC50 greater than 100 µM.
For CCCCCCCC(=O)NNC(=O)c1ccnc(Cl)c1 [Compound 93, 2-Chloro-isonicotinic acid N′-octanoyl-hydrazide], the IC50 was 1 to 50 µM.
CCCCCCC(=O)CC(=O)Nc1cc(C)no1 [Compound 132, 3-Oxo-nonanoic acid (3-methyl-isoxazol-5-yl)-amide] showed an IC50 greater than 100 µM.
Compound Cn1nc(C(C)(C)C)cc1C(=O)NNC(=O)c1ccc(Cl)s1 [Compound 69, 5-tert-Butyl-2-methyl-2H-pyrazole-3-carboxylic acid N′-(5-chloro-thiophene-2-carbonyl)-hydrazide] has an IC50 of 1 to 50 µM.
Cc1csc(C(=O)NNC(=O)Nc2ccc(Br)cc2)c1Cl [Compound 106, 4-(4-Bromo-phenyl)-1-(3-chloro-4-methyl-thiophene-2-carbonyl)-semicarbazide] was tested, and the IC50 was 1 to 50 µM.
Compound CCCCCCC(=O)CC(=O)Nc1ccnn1CC [Compound 116, 3-Oxo-nonanoic acid (2-ethyl-2H-pyrazol-3-yl)-amide] has an IC50 greater than 100 µM.
Work on O=C(NNC(=O)c1sccc1Cl)c1cnn(-c2ccccc2)c1C(F)(F)F [Compound 33, 3-Chloro-thiophene-2-carboxylic acid N′-(1-phenyl-5-trifluoromethyl-1H-pyrazole-4-carbonyl)-hydrazide] yielded an IC50 greater than 100 µM.
In the case of Cn1nc(-c2ccc(Cl)cc2)cc1NC(=O)c1cccs1 [Compound 14, Thiophene-2-carboxylic acid [5-(4-chloro-phenyl)-2-methyl-2H-pyrazol-3-yl]-amide], the IC50 is reported as 1 to 50 µM.
In the case of Cn1nc(C(C)(C)C)cc1C(=O)NNC(=O)c1cccs1 [Compound 70, Thiophene-2-carboxylic acid N′-(5-tert-butyl-2-methyl-2H-pyrazole-3-carbonyl)-hydrazide], the IC50 is reported as greater than 100 µM.
Work on CCn1nc(C)c(Br)c1C(=O)Nc1ccnn1C [Compound 12, 4-Bromo-2-ethyl-5-methyl-2H-pyrazole-3-carboxylic acid (2-methyl-2H-pyrazol-3-yl)-aide] yielded an IC50 of 1 to 50 µM.
CCCCCCC(=O)NNC(=O)c1ccco1 [Compound 89, Furan-2-carboxylic acid N′-heptanoyl-hydrazide] gave an IC50 of 1 to 50 µM.
CCCCCCCCCCCC(=O)NNC(=O)c1cccs1 [Compound 86, Thiophene-2-carboxylic acid N′-dodecanoyl-hydrazide] showed an IC50 of 1 to 50 µM.
COc1c(C(=O)NNC(=O)c2ccco2)csc1Cl [Compound 38, Furan-2-carboxylic acid N′-(5-chloro-4-methoxy-thiophene-3-carbonyl)-hydrazide] showed an IC50 of 1 to 50 µM.
Work on CCCCCCC(=O)NNC(=O)c1ccc(C)s1 [Compound 83, 5-Methyl-thiophene-2-carboxylic acid N′-heptanoyl-hydrazide] yielded an IC50 of 1 to 50 µM.
With CCCCCCCC(=O)NNC(=O)c1c(C)noc1C [Compound 91, 3,5-Dimethyl-isoxazole-4carboxylic acid N′-octanoyl-hydrazide] the IC50 was 1 to 50 µM.
With O=C(NNC(=O)c1cccs1)c1ccc(OC(F)(F)F)cc1 [Compound 29, 4-Trifluoromethoxy-benzoic acid N′-(thiophene-2-carbonyl)-hydrazide] the IC50 was greater than 100 µM.
In the case of CCCC(=O)NNC(=O)c1cccs1 [Compound 75, Thiophene-2-carboxylic acid N′-butyryl-hydrazide], the IC50 is reported as 1 to 50 µM.
Compound CCCCCCC(=O)CC(=O)Nc1sccc1C(=O)OC [Compound 121, 2-(3-Oxo-nonanoylamino)-thiophene-3-carboxylic acid methyl ester] has an IC50 greater than 100 µM.
Cc1cc(C(=O)NNC(=O)c2cccs2)n(C)n1 [Compound 66, 2,5-Dimethyl-2H-pyrazole-3-carboxylic acid N′-(thiophene-2-carbonyl)-hydrazide] was tested, and the IC50 was greater than 100 µM.
Compound Cc1ccc(C(=O)NNC(=O)c2sccc2Br)s1 [Compound 57, 3-Bromo-thiophene-2-carboxylic acid N′-(5-methyl-thiophene-2-carbonyl)-hydrazide] has an IC50 of 1 to 50 µM.
With O=C(NNS(=O)(=O)c1ccc(Cl)s1)c1cccs1 [Compound 97, N′-(5-Chloro-thiophen-2-sulfonyl)-thiophene-2-carboxylic acid hydrazide] the IC50 was 1 to 50 µM.
In the case of Cn1nc(-c2cccs2)cc1NC(=O)c1cccc(Cl)c1 [Compound 15, 3-Chloro-N-(2-methyl-5-thiophen-2-yl-2H-pyrazol-3-yl)-benzamide], the IC50 is reported as 1 to 50 µM.
Compound CCCCCCC(=O)CC(=O)Nc1nc(C)co1 [Compound 134, 3-Oxo-nonanoic acid (4-methyl-oxazol-2-yl)-amide] has an IC50 greater than 100 µM.
Work on O=C(Nc1ccc(OC(F)(F)F)cc1)c1cnc(Cl)nc1C(F)(F)F [Compound 7, 2-Chloro-4-trifluoromethyl-pyrimidine-5-carboxylic acid (4-trifluoromethoxy-phenyl)-amide] yielded an IC50 of 1 to 50 µM.
CCOc1ccsc1C(=O)NNC(=O)c1sccc1Br [Compound 56, 3-Bromo-thiophene-2-carboxylic acid N′-(3-ethoxy-thiophene-2-carbonyl)-hydrazide] gave an IC50 of 1 to 50 µM.
Work on O=C(NNC(=O)c1cc(Br)c(Br)s1)Nc1ccc(Cl)c(C(F)(F)F)c1 [Compound 103, 4-(4-Chloro-3-trifluoromethyl-phenyl)-1-(4,5-dibromo-thiophene-2-carbonyl)-semicarbazide] yielded an IC50 of 50 to 100 µM.
For COc1ccc(NC(=O)c2cncc(Br)c2)cn1 [Compound 9, 5-Bromo-N-(6-methoxy-pyridin-3-yl)-nicotinamide], the IC50 was greater than 100 µM.
With O=C(NNC(=O)c1cc(Cl)sc1Cl)c1ccco1 [Compound 40, Furan-2-carboxylic acid N′-(2,5-dichloro-thiophene-3-carbonyl)-hydrazide] the IC50 was 1 to 50 µM.
O=C(Nc1ccc(Br)cn1)c1cc(Cl)nc(Cl)c1 [Compound 10] was tested, and the IC50 was greater than 100 µM.
